Data: patent publication US20240426807A1, “SCREENING SYSTEM” (Givaudan SA, priority 2021, published 2024)
“Also recorded” adds a separate entry of the source.

Legend:
Type in all cases: cell-based
OR5A2 (clone 3) = target: T1, OR5A2 (clone 3) (Homo sapiens, UniProt Q8NGI9); assay: Ligand-induced puromycin resistance of isolated clone 3 containing OR5A2; conditions: for puromycin resistance of clone 3 in presence of odorant: clone 3 (OR5A2), 11 concentrations of puromycin, co-treated with olfactory ligands
T1 construct: expressed in transfected cells; clone 3 selected with musk ambrette and puromycin
T1 sequence (Q8NGI9 with tags, fused parts or gaps): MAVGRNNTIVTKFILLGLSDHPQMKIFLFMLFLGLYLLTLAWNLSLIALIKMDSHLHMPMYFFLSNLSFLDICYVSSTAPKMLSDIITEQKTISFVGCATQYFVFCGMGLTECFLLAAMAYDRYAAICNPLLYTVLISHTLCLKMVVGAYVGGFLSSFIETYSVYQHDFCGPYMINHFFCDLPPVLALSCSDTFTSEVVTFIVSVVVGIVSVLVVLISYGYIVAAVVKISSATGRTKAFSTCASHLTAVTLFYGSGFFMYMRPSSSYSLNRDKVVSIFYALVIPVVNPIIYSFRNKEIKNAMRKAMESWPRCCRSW

OR10G7 = target: T2, OR10G7 (Homo sapiens, UniProt Q8NGN6, T5S); assay: Ligand-induced OR-dependent puromycin resistance, OR10G7 cells; conditions: HEK293T, pGL4.29-CRE-Puro-Hygro-OR with OR10G7; musk ketone 10 μM, eugenol or isoeugenol 1 μM, ultravanil or vanitrope 100 μM; puromycin 0.015-16 μg/ml; PrestoBlue viability day 4
T2 construct: expressed in transfected cells
T2 sequence (Q8NGN6 1-311 T5S): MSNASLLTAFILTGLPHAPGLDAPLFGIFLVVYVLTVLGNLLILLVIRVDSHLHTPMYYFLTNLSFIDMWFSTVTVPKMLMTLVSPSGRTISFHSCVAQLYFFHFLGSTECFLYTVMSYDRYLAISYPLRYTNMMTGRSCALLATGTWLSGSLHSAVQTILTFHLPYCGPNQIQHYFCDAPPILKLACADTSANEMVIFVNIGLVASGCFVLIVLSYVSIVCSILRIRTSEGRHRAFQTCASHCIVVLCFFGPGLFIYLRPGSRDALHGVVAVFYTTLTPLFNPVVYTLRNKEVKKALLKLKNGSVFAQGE
Protocol: (§1) Stable clones selected with hygromycin containing a stable insertion of the pGL4.29-CRE-Puro-Hygro-OR construct described in Example 1 with either one of the receptors OR10G7, OR10G9 or OR5AN1 (NCBI Genbank Gene ID 390265, 219870 and 390195) were plated at a density of 3000 cells/per well in 200 μl Dubelcco's Modified Eagle medium (DMEM) in polyethyleneimide-coated, white 96 well microtiter plates with a transparent bottom. After cells were allowed to adhere for 24 h, they were exposed to different odorants (musk ketone at 10 μM, eugenol or isoeugenol at 1 μM, ultravanil or vanitrope at 100 μM). 7 h after odorant addition, 100 μl of the medium was removed and replaced with fresh medium with the same odorant concentrations and, in addition, puromycin to reach a final concentration of 0.015-16 μg/ml in 11 twofold dilution steps (day 1 of selection). On day 2 and 3, 100 μl of the medium was again removed and replaced with fresh medium with the same concentration of odorant and puromycin. On day 4 of the selection, medium from each well was removed completely, 100 ul PrestoBlue® cell viability reagent (ThermoFisher Scientific, Catalog No: 14200-083) diluted in phosphate buffered saline was added to each well and cells were incubated at 37° C. until a color change was visible in the wells containing no puromycin. The fluorescence was determined at 560 excitation and 590 nm emission to assess relative cell metabolic activity, which is the net result of cell growth and cell killing in presence of the different puromycin concentrations. The result was expressed as % viability relative to controls with no cells (0%) and cells treated with olfactory ligand only (100%).

[1] = target: T3, pool of cells with OR5A1, OR5A2, OR5AN1, OR6Y1, OR10G4, OR10G7 or OR10G9 (Homo sapiens, UniProt Q8NGN3); assay: Selection of cognate-receptor cells from a pool of OR-expressing cells with the target ligand and puromycin; conditions: 100 μM vanitrope, puromycin 1 μg/ml, pool of 7 OR transfections
T3 construct: expressed in transfected cells; host or cells: HEK293T stably expressing RTP1S and RTP2; 7 separate transfections pooled
T3 sequence (Q8NGN3 1-311): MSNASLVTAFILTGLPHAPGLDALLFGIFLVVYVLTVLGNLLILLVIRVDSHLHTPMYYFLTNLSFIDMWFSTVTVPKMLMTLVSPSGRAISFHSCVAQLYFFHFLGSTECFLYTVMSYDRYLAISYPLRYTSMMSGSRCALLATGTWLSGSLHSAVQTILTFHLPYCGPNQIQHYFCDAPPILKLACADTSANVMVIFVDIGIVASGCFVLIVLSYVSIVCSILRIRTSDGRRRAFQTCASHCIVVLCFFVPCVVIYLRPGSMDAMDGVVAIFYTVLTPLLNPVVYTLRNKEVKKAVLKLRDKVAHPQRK
Protocol: For many ligands the cognate OR receptors are not known (“orphan receptors”), or it is unknown among a pool of receptors, which one has the best affinity for a ligand of interest, e.g. a perfumery note of particular interest. Thus, the ligand-induced selection pressure can be used to enrich a specific OR-expressing cell from a pool of OR-expressing cells in the presence of a ligand of interest. HEK293T cells stably expressing RTP1S and RTP2 were seeded into 7 wells of 6-well plates at 330,000 cells/well.
The next day, the cells of each well were transfected with 2 μg of a PvuI-linearized pGL4.29-CRE-Puro-Hygro-OR construct harboring one of the receptors OR5A1 (NCBI Genbank Gene ID: 219982), OR5A2 (NCBI Genbank Gene ID: 219981), OR5AN1 NCBI Genbank Gene ID: 390195, SEQ ID NO: 70), OR6Y1 (NCBI Genbank Gene ID: 391112), OR10G4 (NCBI Genbank Gene ID: 390264, SEQ ID NO: 72), OR10G7 (NCBI Genbank Gene ID: 390265, SEQ ID NO: 71), or OR10G9 (NCBI Genbank Gene ID: 219870). 24 h after transfection, the cells of all 7 transfections were harvested and pooled. 350 cells of this pool of cells with different OR genes inserted were then seeded into each well of seven 96-well plates.
3 days later, cells were stimulated with ligands for either OR5AN1 (10 μM musk ketone), OR10G7 (1 μM eugenol), or OR10G4 (100 μM vanitrope). One plate was treated with DMSO only. 6h after the addition of the OR ligands, puromycin was added to each plate at a final concentration of 1 μg/ml. On every day during the following week, the medium on all plates was replaced with fresh medium containing the corresponding ligand and puromycin. The plates were then searched for wells containing only a single colony of puromycin-resistant cells. The cells of those colonies were transferred to larger plates and grown until they had multiplied to about 8 Mio cells. The genomic DNA of 2 Mio cells of each clone were isolated using the Puregene kit according to the manufacturer's protocol. […]

OR10G9 = target: T4, OR10G9 (Homo sapiens, UniProt Q8NGN4); assay: Ligand-induced OR-dependent puromycin resistance, OR10G9 cells; conditions: HEK293T, pGL4.29-CRE-Puro-Hygro-OR with OR10G9; musk ketone 10 μM, eugenol or isoeugenol 1 μM, ultravanil or vanitrope 100 μM; puromycin 0.015-16 μg/ml; PrestoBlue viability day 4
T4 construct: expressed in transfected cells
T4 sequence (Q8NGN4 1-311): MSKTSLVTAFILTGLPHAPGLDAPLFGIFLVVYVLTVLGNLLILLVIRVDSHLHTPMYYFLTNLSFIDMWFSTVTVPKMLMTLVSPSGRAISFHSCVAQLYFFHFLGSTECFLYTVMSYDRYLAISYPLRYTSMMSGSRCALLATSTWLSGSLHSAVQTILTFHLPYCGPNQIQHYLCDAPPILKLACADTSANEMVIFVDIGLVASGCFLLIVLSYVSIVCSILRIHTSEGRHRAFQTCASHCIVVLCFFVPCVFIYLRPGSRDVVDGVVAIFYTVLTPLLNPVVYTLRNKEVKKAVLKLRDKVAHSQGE
Protocol: as §1

OR5AN1 [2] = target: T5, OR5AN1 (Homo sapiens, UniProt Q8NGI8); assay: Ligand-induced OR-dependent puromycin resistance, OR5AN1 cells; conditions: HEK293T, pGL4.29-CRE-Puro-Hygro-OR with OR5AN1; musk ketone 10 μM, eugenol or isoeugenol 1 μM, ultravanil 100 μM; puromycin 0.015-16 μg/ml; PrestoBlue viability day 4
T5 construct: expressed in transfected cells
T5 sequence (Q8NGI8 1-311): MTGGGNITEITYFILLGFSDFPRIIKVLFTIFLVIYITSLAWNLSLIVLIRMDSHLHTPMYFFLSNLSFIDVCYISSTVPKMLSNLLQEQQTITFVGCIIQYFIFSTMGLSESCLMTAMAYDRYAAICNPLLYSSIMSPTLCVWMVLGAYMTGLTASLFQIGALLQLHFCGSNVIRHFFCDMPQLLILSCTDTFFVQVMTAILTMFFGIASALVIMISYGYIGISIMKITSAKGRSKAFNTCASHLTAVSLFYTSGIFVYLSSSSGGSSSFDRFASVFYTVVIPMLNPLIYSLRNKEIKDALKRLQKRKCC
Protocol: as §1

OR5AN1 [3] = target: T5, OR5AN1; assay: Ligand-induced blasticidin resistance, OR5AN1 cells (pGL4.29-CRE-BLAST-OR); conditions: HEK293T OR5AN1, odorant 10 μM, blasticidin 0.5-256 μg/ml, PrestoBlue viability day 4
Excerpt: To generate a vector allowing positive selection of cell clones with a functional expression of a specific OR gene, a blasticidin resistance gene was placed downstream of SEQ ID NO: 4. The pGL4.29-CRE-Puro-OR vector generated as described in Example 1 was digested with BgIII and FseI to remove the comprised basal promoter and the complete puromycin resistance gene. The removed basal promoter sequence was amplified with the primers […] (SEQ ID NO: 28), […] (SEQ ID NO: 63), and the blasticidin S deaminase (bsd, SEQ ID NO: 64) encoding sequence was amplified by PCR using the primers […] (SEQ ID NO: 66) […] (SEQ ID NO: 67). The two overlapping PCR products were joined by fusion PCR using primers […] (SEQ ID NO: 28) and […] (SEQ ID NO: 68). The resulting DNA fragment was digested with BgIII/FseI and ligated into the digested vector to generate pGL4.29-CRE-Blast-OR.
This vector was used to generate stable cell lines as described in Example 1.
Stable clones containing a stable insertion of the pGL4.29-CRE-BLAST-OR construct with the receptor OR5AN1 (NCBI Genbank Gene ID: 390195) were then plated at a density of 3000 cells/per well in 100 μl Dubelcco's Modified Eagle medium (DMEM) in polyethyleneimide-coated, white 96 well microtiter plates with a transparent bottom. After cells were allowed to adhere for 24 h, 50 μl of medium containing different odorants (musk ketone or ethyl vanillin at 40 μM) was added to each well resulting in an odorant concentration of 13.3 μM. 6 h after odorant addition, 50 μl of medium containing blasticidin was added to reach a final concentration of 0.5-256 μg/ml in 10 two-fold dilution steps (day 1 of selection). This step further diluted the odorant to 10 μM. On day 4 of the selection (72 h after blasticidin addition), medium from each well was removed completely, 100 μl PrestoBlue® cell viability reagent (ThermoFisher Scientific, Catalog No: 14200-083) diluted in phosphate buffered saline containing 1 mg/ml glucose was added to each well and cells were incubated at 37° C. until a color change was visible in the wells containing no blasticidin. The fluorescence was determined at 560 excitation and 590 nm emission to assess relative cell metabolic activity, which is the net result of cell growth and cell killing in presence of the different blasticidin concentrations. The result was expressed as % viability relative to controls with no cells (0%) and cells treated with olfactory ligand only (100%).

| SMILES | puromycin resistance of clone 3 in presence of odorant (OR5A2 (clone 3)) | puromycin resistance in presence of odorant versus solvent control (OR10G7) | puromycin resistance in presence of odorant versus solvent control (OR10G9) | puromycin resistance in presence of odorant versus solvent control (OR5AN1 [2]) | further results |
| --- | --- | --- | --- | --- | --- |
| CC(OC(C)(C)COC(=O)C1CC1)C1CCCC(C)(C)C1 (centres unmarked) [serenolide] | increased resistance to puromycin | – | – | – | – |
| COc1c(C(C)(C)C)cc([N+](=O)[O-])c(C)c1[N+](=O)[O-] [musk ambrette] | increased resistance to puromycin | – | – | – | survival of clone 3 under puromycin treatment with ligand (OR5A2 (clone 3); musk ambrette 30 μM, puromycin 3 μg/ml, continuous exposure): able to survive puromycin treatment in presence of the ligand musk ambrette but not in its absence |
| C/C=C/c1ccc(OCC)c(O)c1 [vanitrope, propenyl guaethol] | – | increased resistance to puromycin; also recorded: strongly enhanced puromycin resistance | increased resistance to puromycin; also recorded: selectively enhanced resistance | – | colonies selected with the ligand that contained OR10G4 [1]: 8 out of 8 |
| CCOc1cc(C)ccc1O [ultravanil, vanilla cresol] | – | increased resistance to puromycin; also recorded: strongly enhanced puromycin resistance | increased resistance to puromycin; also recorded: selectively enhanced resistance | do not increase resistance over solvent control; also recorded: the resistance was equal to the solvent control | – |
| CCOc1cc(C=O)ccc1O [ethyl vanillin] | – | – | – | – | blasticidin resistance in presence of odorant versus solvent control (OR5AN1 [3]): equally sensitive to blasticidin as in presence of the solvent control; blasticidin resistance in presence of odorant versus solvent control (OR5AN1 [3]; listed as ethylvanillin): does not increase resistance over solvent control |
| CC=Cc1ccc(O)c(OC)c1 [isoeugenol] | – | increased resistance to puromycin; also recorded: strongly enhanced puromycin resistance | no increased resistance | do not increase resistance over solvent control; also recorded: the resistance was equal to the solvent control | – |
